The values below come from patent US20240262831A1, “COMPOUNDS AND USE THEREOF FOR TREATMENT OF NEURODEGENERATIVE, DEGENERATIVE AND METABOLIC DISORDERS” (VOVA IDA THERAPEUTICS, INC., priority 2020, published 2024).

For orientation: EC50 means the concentration giving half of the maximal effect.

Structures are written as SMILES.

The test system of series [1] is PK1 neuroblastoma cells exposed to TPrP. Briefly: cells. The note with it: Neuroblastoma cell, 96 h, read-out: TPrP EC50.
Series [2] in a line: Microsomal stability assay, human hepatic microsomes. The series is classed as in vitro ADME. The note with it: 1 mg/ml human hepatic microsomes, 37° C., half-life by LC-MS/MS. As for the experimental part:
The metabolic stability of some test compounds was determined in hepatic human and mouse microsomes. The compound was incubated with 1 mg/ml human or mouse hepatic microsomes at 37° C. with continuous shaking. Aliquots were removed at various time points between 5 minutes and 2 hours and acetonitrile was added to quench the reactions and precipitate the proteins. Samples were then centrifuged through 0.45 μm filter plates and half-lives were determined by LC-MS/MS.

A further series can be described thus: in vitro. Particulars: mouse, tox (toxicity noted in TPrP EC50 column).

Turning to `CCOc1ccc(-c2cc(=S)c3cccc(C(=O)NCCCn4ccnc4C)c3o2)cc1` [SR-35435], in series [1], the EC50 came to 0.054 µM. As to `CCOc1ccc(-c2ccn3ccc(C(=O)NCCCn4ccnc4C)c3n2)cc1` [SR-35784], the “Stability in human microsomes ≥15 minutes” value in series [2] is listed as “Yes”. As for `CCOc1ccc(-c2cc(=S)c3scc(C(=O)NCCCn4ccnc4C)c3[nH]2)cc1` [SR-34953], the EC50 in series [1] was determined as 0.006 µM. With `CCSc1ccc(-c2cc(=S)n3ncc(C(=O)NCCCn4ccnc4C)c3[nH]2)cc1` [SR-34831], the EC50 in series [1] is 0.02 µM.

In the case of `Cc1cc(-c2ccc3c(c2)OCO3)nc2c(C(=O)NCCCn3ccnc3C)csc12` [SR-33781], the EC50 in series [1] is < 0.005 µM. Still for that read-out and setting: in the case of `Cc1nccn1CCCNC(=O)c1cnn2c(=O)cc(-c3ccc4c(c3)OCO4)[nH]c12` [SR-31105] it was 0.8 µM; in that of `O=C(NCCCn1ccnc1)c1cnn2c(C(F)(F)F)cc(-c3ccccc3)nc12` [SR-229], 0.002 µM. The same measure, in the same setting: in the case of `CCOc1ccc(-c2cc(=O)c3cccc(C(=O)NCCCn4ccnc4C)c3o2)cc1` [SR-35434] it was 0.018 µM; in that of `CCOc1ccc(-c2cc(=O)n3ncc(C(=O)NCCCn4ccnc4C)c3[nH]2)cc1` [SR-32684], 0.9 µM. On the same count and under the same terms, in the case of `CCOc1ccc(-c2cc(=O)n3ncc(C(=O)NCCCn4ccnc4C)c3n2C)cc1` [SR-32686] it was > 2.7 µM; in that of `CCOc1ccc(-c2cc(=S)n3ncc(C(=O)NCCCn4ccnc4C)c3[nH]2)cc1` [SR-32685], 0.04 µM. Consider `CCOc1ccc(-c2cc(Cl)n3ncc(C(=O)NCCCn4ccnc4C)c3n2)cc1` [SR-32689], for which the EC50 was > 0.9 µM in the series “in vitro” and 0.02 µM in series [1]. Turning to `CCOc1ccc(-c2cc(N3CC[C@H](NC(C)=O)C3)n3ncc(C(=O)NCCCn4ccnc4C)c3n2)cc1` [SR-32688], the concentration for a half-maximal effect (EC50) in series [1] is < 0.005 µM.

Take `CCOc1ccc(-c2cc(N3CC[C@@H](NC(C)=O)C3)n3ncc(C(=O)NCCCn4ccnc4C)c3n2)cc1` [SR-32687]: the EC50 in series [1] was < 0.005 µM.
